Consider eleven sequences from patent US11505574B2, “Modulation of P53 for the treatment of cancer” (THE REGENTS OF THE UNIVERSITY OF CALIFORNIA, priority 2016, dated 2022).

Series [1] concerns p53. Briefly: Western blot for p53 in MCF7 cells treated with oligonucleotides. The series is classed as cell-based, human. To be noted: MCF7 cells; oligonucleotide 50 nM; 24 hours (FIG. 2). (In general: In western blotting, separated proteins are transferred to a membrane and probed.)
The subject of the next series is RKO cells. Put plainly: RKO cell colony formation assay (oligonucleotides). Format: cell-based. The conditions noted are these: 5 μM oligonucleotide for 24 hours; versus M3 control (FIG. 30). From the text:
Another strategy is to use oligonucleotides to block the interaction between RBM38 and the 3′ untranslated region (UTR) of p53 in order to modulate p53 translation (FIG. 26). To this end, a region of the p53 3′ UTR where RBM38 interacts (FIG. 27) was identified (SEQ ID NO:15) and several oligonucleotides having complementarity to this sequence (e.g., SEQ ID NOS:16-21) were designed.

Series [2] has as its system p53. Put plainly: Western blot for p53 and downstream targets in RKO cells treated with peptides. The series is classed as cell-based, human. To be noted: RKO cells; for p53 protein expression compared to Pep8 (Western blot) / p53 and p21 expression after low-dose doxorubicin treatment (Western blot): 375 nM peptide with 7.5 μM PEP1; for p53 protein expression compared to Pep8 (Western blot): 18 hours (FIG. 37A); for p53 and p21 expression after low-dose doxorubicin treatment (Western blot): 6.25 ng/mL doxorubicin 18 hours (FIG. 34G); for expression of p53 and downstream targets with low-dose doxorubicin (Western blot): complexes of CPPs and peptide plus doxorubicin 6.25 ng/mL (FIG. 19A); for p53 expression (Western blot): 300 nM peptide with 6 μM PEP1, 24 hours (FIG. 31A); for expression of p53 (Western blot): peptide complexed with PEP1 (FIG. 13A).

In series [3] the test system is p53. Briefly: Western blot for p53 and downstream targets in MCF7 cells treated with peptides. The series is classed as cell-based, human. The conditions noted are these: for p53 and p21 expression after low-dose doxorubicin treatment (Western blot) / doxorubicin-mediated p53 and p21 upregulation (Western blot) / expression of p53 and downstream targets with low-dose doxorubicin (Western blot) / p53 expression (Western blot) / protein expression of p53 and downstream targets p21 and MDM2 (Western blot) / expression of p53 and downstream targets p21 and MDM2 (Western blot): MCF7 cells; for p53 and p21 expression after low-dose doxorubicin treatment (Western blot): 375 nM peptide with 7.5 μM PEP1, 6.25 ng/mL doxorubicin 18 hours (FIG. 34H); for doxorubicin-mediated p53 and p21 upregulation (Western blot): 375 nM peptide with (20:1) plus 6.25 ng/mL doxorubicin, 18 hours (FIG. 1C); for expression of p53 and downstream targets with low-dose doxorubicin (Western blot): complexes of CPPs and peptide plus doxorubicin 6.25 ng/mL (FIG. 19B); for p53 expression (Western blot): 300 nM peptide with 6 μM PEP1, 24 hours (FIG. 31B); for protein expression of p53 and downstream targets p21 and MDM2 (Western blot): 300 nM peptide with 6 μg PEP1 (20:1 PEP1 to peptide), 18 hours (FIG. 1A); for expression of p53 and downstream targets p21 and MDM2 (Western blot): complexes with PEP1 (FIG. 13B).

The test system of the next series is MCF7 cells. Put plainly: MCF7 cell colony formation assay (peptides). The series is classed as cell-based, human. To be noted: for inhibition of colony formation by low-dose doxorubicin: MCF7 cells, 375 nM peptide with 7.5 μg PEP1 (20:1) plus 3.125 ng/mL doxorubicin (FIG. 1D); for colony formation in MCF7 cells: complexes of peptide and PEP1 (FIG. 18); for MCF7 cell colony formation: 375 nM peptide with 7.5 μg PEP1 (20:1) (FIG. 1B). Here is the method:
In order to test the effect of the RBM38 and eIF4E peptides on cancer cell colony formation, MCF7 cells were seeded in 6-well plates at a density of 1×10^3 cells per well. The following day, cells were treated with peptides. In order to form stable complexes with PEP1, 100 μl of serum-free DMEM was added to individual Eppendorf tubes. Control (SEQ ID NO:11), RBM38, and eIF4E peptides were added at a concentration of 375 nM and then 7.5 μg of PEP1 was added to each peptide (20:1). The complexes were incubated for 20 minutes at room temperature and then added dropwise to cells. Cell media was changed every three days until colonies were visible. The cells were fixed and then stained with crystal violet.
In order to test the effect of a combination treatment comprising peptides of the present invention and a chemotherapeutic agent on cancer cell colony formation, MCF7 cells were seeded in 6-well plates at a density of 1×10^3 cells per well. The following day, cells were treated with peptides. In order to form stable complexes with PEP1, 100 μL of serum-free DMEM was added to individual Eppendorf tubes. Control, RBM38, eIF4E, and peptide-8 peptides were added at a concentration of 375 nM and then 7.5 μg of PEP1 was added to each peptide (20:1). The complexes were incubated for 20 minutes at room temperature and then added dropwise to cells. 20 minutes after addition of peptide complexes, 3.125 ng/mL doxorubicin was added to the cells. Cell media was changed every three days until colonies were visible. The cells were fixed and then stained with crystal violet.
For the experiments shown in FIG. 34C, MCF7 cells were seeded on a 6-well plate at a seed density of 1×10^3 cells per well. The following day the cells were treated with 5 μM Pen-Ctrl or 5 μM Pen-Pep23. The following day, 6.25 ng/mL doxorubicin was added to the cells for 48 hours. Subsequently, the cell media was changed every 3 days until colonies were visible. The cells were fixed and stained with crystal violet.

A further series concerns U20S. Put plainly: U20S cell colony formation assay (FIG. 18). Format: cell-based, human. The conditions noted are these: complexes of peptide and PEP1 (FIG. 18).
Series [4] relates to MIA-PaCa-2 pancreatic cancer cells. Put plainly: MIA-PaCa-2 cell colony formation assay (peptides). Format: cell-based, human. The conditions noted are these: complexes of peptide and PEP1 (FIG. 18). From the text:
[…] […] After colonies formed they were fixed (i.e., using 7:1 MeOH:glacial acetic acid) and stained with crystal violet.

For series [5], the system named is tumor cell colony formation. Briefly: Tumor cell colony formation assay, cell line not stated (FIGS. 13C, 20D). Format: cell-based. To be noted: complexes with PEP1 (FIG. 13C).

Entries after “also recorded” stand apart in the source; their conditions may differ.

As for “AAAGAAAAAAGAAAA (listed as DNA, chemistry not given here) [18T-AS-15]”, the “level of p53 (Western blot)” value with p53 [1] is “level of p53 was increased”.

Regarding “AAAAAAGAAAAAAAA (chemistry not given here) [14A/G]”, the “level of p53 (Western blot)” value with p53 [1] is “level of p53 was increased”. In addition, the “RKO tumor cell colony formation” value with RKO cells is “inhibited RKO tumor cell colony formation after 24 hours more than the M3 control oligonucleotide did”.

Turning to YPYAAKPA [Pep8-SK, Pep8 mutant], the “p53 protein expression compared to Pep8 (Western blot)” value with p53 [2] was “stronger ability to induce p53 protein expression compared to Pep8”.

As to “AAAGAAAAAAGAAAAAAAAAAAAAAAAAAGAAAAAGAA (listed as DNA, chemistry not given here) [18T-AS]”, in the series with p53 [1], the “level of p53 (Western blot)” value is given as “level of p53 was increased”.

For the sequence “AAAAAAAAAAAAAAAAAA (listed as DNA, chemistry not given here) [15A]”, the “level of p53 (Western blot)” value in the series on p53 [1] is given as “level of p53 was increased”. In addition, the “RKO tumor cell colony formation” value with RKO cells is listed as “inhibited RKO tumor cell colony formation after 24 hours more than the M3 control oligonucleotide did”.

Consider YPYAASPA [peptide-8], for which the “induction of p53 (Western blot)” value in the series with p53 [3] (MCF7 cells 375 nM, 50 nM or 150 nM, RKO cells 150 nM (FIG. 16)) is “stronger induction of p53 than the longer RBM38 and eIF4E peptides; also recorded: increases p53 expression”. Moreover, in the series with p53 [3], the “p53 and p21 expression after low-dose doxorubicin treatment (Western blot)” value (shortened to “p53 and p21 expression”) was “further increased p53 and p21 expression”; the “doxorubicin-mediated p53 and p21 upregulation (Western blot)” value is “enhanced the effect of doxorubicin-mediated p53 and p21 upregulation; also recorded: able to enhance the induction of p53 and p21”; the “expression of p53 and downstream targets with low-dose doxorubicin (Western blot)” value was “increased the expression of p53 and downstream targets”. In addition, the “p53 protein levels (Western blot)” value in the series on p53 [2] (50 nM peptide with 1 μM PEP1, 18 hours (FIG. 32A)) is recorded as “could induce p53 protein levels”. In addition, in the series with p53 [2], the “p53 and p21 expression” value was “further increased p53 and p21 expression”; the “expression of p53 and downstream targets with low-dose doxorubicin (Western blot)” value is “increased the expression of p53 and downstream targets”. In the series on MCF7 cells, the “inhibition of colony formation by low-dose doxorubicin” value (“inhibition of colony formation” for short) is recorded as “enhanced the inhibition of colony formation by low-dose doxorubicin; also recorded: led to decreased colony formation” and the “colony formation in MCF7 cells” value is listed as “inhibited colony formation”. Also, the “colony formation in U20S cells” value in the series with U20S is reported as “inhibited colony formation”. The “colony formation in MIA-PaCa-2 pancreatic cancer cells” value in series [4] is “inhibited colony formation”.

As for YPYAARPA [Pep8-SR, Pep8 mutant], in the series with p53 [2], the “p53 protein expression compared to Pep8 (Western blot)” value is listed as “stronger ability to induce p53 protein expression compared to Pep8”.

For the sequence “AAAGAAAAAAGAAAAAAAA (listed as DNA, chemistry not given here) [18T-AS-19]”, the “level of p53 (Western blot)” value with p53 [1] was “level of p53 was increased”.

Consider IGYQSHADTATKSGSTTKNRFVV [eIF4E], for which, in the series with p53 [3], the “p53 expression (Western blot)” value was “able to increase p53 expression”; the “protein expression of p53 and downstream targets p21 and MDM2 (Western blot)” value is “increased protein expression of p53 and the downstream targets p21 and mouse double minute 2 homolog (MDM2); also recorded: increasing p53 protein levels; also recorded: induced p53 and downstream targets p21 and MDM2”; the “p53 and p21 expression” value was “further increased p53 and p21 expression”; the “doxorubicin-mediated p53 and p21 upregulation (Western blot)” value is “enhanced the effect of doxorubicin-mediated p53 and p21 upregulation; also recorded: able to enhance the induction of p53 and p21”. In the series with p53 [3], the “expression of p53 and downstream targets with low-dose doxorubicin (Western blot)” value was “increased the expression of p53 and downstream targets”; the “expression of p53 and downstream targets p21 and MDM2 (Western blot)” value was “expression of p53 and downstream targets p21 and MDM2 was increased”. Moreover, in the series with p53 [2], the “p53 expression (Western blot)” value was “able to increase p53 expression”; the “p53 and p21 expression” value is “further increased p53 and p21 expression”; the “expression of p53 and downstream targets with low-dose doxorubicin (Western blot)” value is “increased the expression of p53 and downstream targets”; the “expression of p53 (Western blot)” value was “expression of p53 was increased relative to controls”. For the same sequence, in the series with MCF7 cells, the “MCF7 cell colony formation” value is reported as “able to inhibit MCF7 cell colony formation; also recorded: able to suppress colony formation of MCF7 breast cancer cells; also recorded: decreased colony formation”, the “inhibition of colony formation” value was “enhanced the inhibition of colony formation by low-dose doxorubicin; also recorded: led to decreased colony formation” and the “colony formation in MCF7 cells” value is recorded as “inhibited colony formation”. In addition, the “tumor cell colony formation” value in series [5] is recorded as “successful at inhibiting tumor cell colony formation”. Besides, the “colony formation in U20S cells” value with U20S is reported as “inhibited colony formation”. Also, the “colony formation in MIA-PaCa-2 pancreatic cancer cells” value in series [4] is on record as “inhibited colony formation”.

Consider “AAAGAAAAAAGAAAAAAAAAAAAAAAAAA (listed as DNA, chemistry not given here) [18T-AS-29]”, for which, in the series with p53 [1], the “level of p53 (Western blot)” value is “level of p53 was increased”.

On to “QYPPATYDQYPYAASPATAASFVGYSYPAAVPQALSAAAP [RBM38]”, for which, in the series on p53 [3], the “p53 expression (Western blot)” value is reported as “able to increase p53 expression”; the “protein expression of p53 and downstream targets p21 and MDM2 (Western blot)” value was “increased protein expression of p53 and the downstream targets p21 and mouse double minute 2 homolog (MDM2); also recorded: increasing p53 protein levels; also recorded: induced p53 and downstream targets p21 and MDM2”; the “p53 and p21 expression” value is “further increased p53 and p21 expression”; the “doxorubicin-mediated p53 and p21 upregulation (Western blot)” value was “enhanced the effect of doxorubicin-mediated p53 and p21 upregulation; also recorded: able to enhance the induction of p53 and p21”. In addition, in the series on p53 [3], the “expression of p53 and downstream targets with low-dose doxorubicin (Western blot)” value is “increased the expression of p53 and downstream targets”; the “expression of p53 and downstream targets p21 and MDM2 (Western blot)” value was “expression of p53 and downstream targets p21 and MDM2 was increased”. For the same sequence, in the series on p53 [2], the “p53 expression (Western blot)” value is recorded as “able to increase p53 expression”; the “p53 and p21 expression” value is “further increased p53 and p21 expression”; the “expression of p53 and downstream targets with low-dose doxorubicin (Western blot)” value was “increased the expression of p53 and downstream targets”; the “expression of p53 (Western blot)” value was “expression of p53 was increased relative to controls”. Moreover, in the series on MCF7 cells, the “MCF7 cell colony formation” value is reported as “able to inhibit MCF7 cell colony formation; also recorded: able to suppress colony formation of MCF7 breast cancer cells; also recorded: decreased colony formation” and the “inhibition of colony formation” value is listed as “enhanced the inhibition of colony formation by low-dose doxorubicin”. The “tumor cell colony formation” value in series [5] is given as “successful at inhibiting tumor cell colony formation”.
